pIC50: −log10 of the molar value. Calls of active or inactive are those of the source.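 Rule for the calls: active = half-maximal concentration for changing protein binding to DNA, from the fitted dose curve, below 10 micromolar; inactive = the rest.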
Biological target: Nuclear receptor subfamily 1 group D member 1 (Homo sapiens) (UniProt P20393)
Assay: Rev-erbα–DNA interaction modulators – biochemical, FITC-DNA, fluorescence polarization, dose response (AID 1259321)
Conditions: Rev-erb alpha-FITC-DNA binding

Sequence of Nuclear receptor subfamily 1 group D member 1 (Homo sapiens) (P20393 whole entry, looked up): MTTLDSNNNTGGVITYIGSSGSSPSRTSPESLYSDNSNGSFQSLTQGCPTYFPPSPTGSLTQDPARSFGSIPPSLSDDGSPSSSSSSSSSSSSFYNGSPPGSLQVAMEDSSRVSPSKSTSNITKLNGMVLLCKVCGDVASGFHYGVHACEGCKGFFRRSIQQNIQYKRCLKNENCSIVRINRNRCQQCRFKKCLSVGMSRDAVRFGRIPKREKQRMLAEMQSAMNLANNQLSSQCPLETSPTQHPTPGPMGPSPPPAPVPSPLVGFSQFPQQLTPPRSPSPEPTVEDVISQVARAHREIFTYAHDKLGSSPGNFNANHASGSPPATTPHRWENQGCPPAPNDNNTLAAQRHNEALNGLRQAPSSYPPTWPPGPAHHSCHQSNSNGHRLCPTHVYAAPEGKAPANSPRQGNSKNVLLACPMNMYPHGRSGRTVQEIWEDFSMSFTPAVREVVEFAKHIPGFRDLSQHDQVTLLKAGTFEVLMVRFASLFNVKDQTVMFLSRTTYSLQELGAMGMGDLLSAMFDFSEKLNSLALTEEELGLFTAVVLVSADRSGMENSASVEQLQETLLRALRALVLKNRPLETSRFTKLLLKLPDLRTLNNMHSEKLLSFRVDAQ

SMILES | pIC50 | IC50
Nc1ccc2nc3c(=O)n(C4CCCCC4)c(=O)[nH]c3nc2c1 | 5.20 | –
Cn1c(SCC(=O)NCc2ccc3c(c2)OCO3)ncc(C(=O)Nc2ccc(F)cc2)c1=O | 5.41 | –
COc1ccccc1Oc1ccc2c(c1)C(=O)N(c1ccccc1)C2=O | 5.65 | –
Cc1onc(-c2ccccc2)c1C(=O)Nc1nc(-c2cc(F)ccc2F)cs1 | 5.37 | –
COc1ccc(NC(=O)CSc2nc(N)c(C#N)cc2C#N)cc1 | 5.24 | –
N=C1C(c2nc3ccccc3s2)=C(O)CN1NC(=O)c1c[nH]c2ccccc12 | 5.35 | –
Cc1ccc2[nH]cc(/C=C/c3cc[n+](C)cc3)c2c1 | – | > 40 µM (inactive)
COc1cc(OC)c(N(C)S(=O)(=O)c2cccc(C(=O)OCc3c(C)noc3C)c2)cc1Cl | 5.29 | –
Cc1c(C(=O)Nc2ccncc2)sc2nc(-c3ccc(F)cc3)cn12 | 5.42 | –
COc1ccc(S(=O)(=O)N2CCc3ccccc32)cc1C(=O)Nc1ccc(NC(C)=O)cc1 | 5.28 | –
CCNC(=O)C[C@H]1CC[C@H]2[C@@H](COc3ccc(NC(=O)c4ccc5c(c4)OCO5)cc3C(=O)N2C)O1 | – | inactive
Cc1coc(NC(=O)CSc2nc(-c3ccc(Cl)cc3)cc(C(F)(F)F)c2C#N)n1 | – | inactive
CC(C)(C#N)Cc1cc(CC(C)(C)C#N)cc(C(C)(C)C)c1 | 5.39 | –
CC1=Nc2ccccc2/C1=C/c1sc(=S)n(-c2cccc(C(=O)O)c2)c1O | – | > 40 µM (inactive)
COc1ccccc1NC(=O)CSc1nc(N)c(C#N)cc1C#N | – | inactive
COc1ccc(C(=O)NC(=S)Nc2ccc3[nH]c(=O)[nH]c3c2)c(OC)c1 | – | > 40 µM (inactive)
COc1ccc2nc(SC)c(C#N)cc2c1 | – | inactive
CN1C(=O)N(C)c2ccc(Br)c3cccc1c23 | – | > 40 µM (inactive)
COc1ccccc1NC(=O)c1oc2ccccc2c1NC(=O)c1cc(OC)c(OC)c(OC)c1 | 5.32 | –
Cc1nc(SCc2nc3c(F)cccc3[nH]2)c2oc3ccccc3c2n1 | – | > 40 µM (inactive)
CCCCCCc1cc2cc(C(=O)Nc3ccccc3)c(=O)oc2cc1O | – | > 40 µM (inactive)
Cc1cccc(N2CCN(c3ccc4cc(S(=O)(=O)N5CCCCC5)ccc4n3)CC2C)c1 (centres undefined) | 5.31 | –
Cc1cnc(NC(=O)c2cc3c(C)nn(-c4ccccc4)c3s2)s1 | 5.42 | –
Cc1ccc(-n2c(SCC(=O)Nc3cccc(C)c3)nc3c(oc4ccccc43)c2=O)cc1 | 5.66 | –
O=C(CCSc1nnc2scc(-c3ccccc3)n12)Nc1nc(-c2ccccc2)ns1 | – | inactive

SMILES | pIC50 | IC50
O=[N+]([O-])c1ccc(N(c2ccccc2)c2ccccc2)cc1 | 5.34 | –
COc1nc(-c2ccccc2)ccc1-c1noc(-c2cccs2)n1 | – | > 40 µM (inactive)
CNC(=O)COc1ccccc1C(=O)Nc1ccc2c(c1)oc1ccccc12 | – | > 40 µM (inactive)
COC(=O)c1ccc(Cn2ccc3ccc(-c4ccc5ccn(C(=O)c6ccc(C)cc6)c5c4)cc32)cc1 | 5.81 | –
COC(=O)Cn1cc(/C=C/c2cc[n+](C)cc2)c2ccccc21 | – | inactive
Cc1cc(C)cc(NC(=S)/C(=C(\[O-])c2ccc(Cl)cc2Cl)[n+]2ccc(C(C)(C)C)cc2)c1 | – | > 40 µM (inactive)
N#Cc1c(N)nc(SCC(=O)NCc2ccc3c(c2)OCO3)c(C#N)c1-c1cccs1 | 5.62 | –
O=C1c2cccc3c(N4CCCCC4)ccc(c23)C(=O)N1CCO | – | inactive
C=CCN1C(=O)/C(=C2/Sc3ccc(OC)cc3N2C)SC1=NCc1ccccc1 | 5.20 | –
Fc1cccc2sc(Nc3nc4ccccc4s3)nc12 | – | > 40 µM (inactive)
O=C(CSc1nc2c(c(C(F)(F)F)n1)CCc1ccccc1-2)NCc1ccccc1 | 5.38 | –
NS(=O)(=O)c1ccc(CCNC(=O)c2cc(-c3ccccn3)nc3ccc(Br)cc23)cc1 | 5.42 | –
CCCCOC(=O)c1cc(C)nc2ccc(Br)cc12 | – | inactive
CCOc1ccc(NC(=O)CNC(=O)c2nn(-c3ccc(OC)c(OC)c3)c(=O)c3ccccc23)cc1 | 5.14 | –
O=C(Nc1nc(=O)c2ccccc2s1)c1ccc(Cl)cc1 | – | > 40 µM (inactive)
Cc1cc(-c2csc3nc[nH]c(=S)c23)cc(C)c1C | 5.27 | –
O=C(NCc1cccc(F)c1)c1cccc2c1C(=O)c1ccc(N3CCOCC3)cc1S2(=O)=O | 5.43 | –
CCCOc1ccc(C(=O)Nc2nc(C)c(Cc3ccc4c(c3)OCO4)s2)cc1 | – | inactive
CSc1ccc(SC2CN(Cc3ccc(C)cc3)S(=O)(=O)C2)cc1 (centres undefined) | – | inactive
CC(=O)Oc1c(/C=C(\C#N)C(N)=O)[nH]c2ccccc12 | 5.66 | –
CC(C)c1ccc(-c2c(C#N)c(N)nc(SCC(=O)N3CCCCC3)c2C#N)cc1 | 5.50 | –
Cc1ccc(C(=O)Nc2nc3ccccc3c(=O)s2)cc1 | 6.22 | –
CCOc1ccccc1NC(=O)c1cnc2n(c1=O)CCS2 | – | > 40 µM (inactive)
COc1ccc(-c2nnc(NC(=O)C(C)C)s2)c(OC)c1 | – | inactive
O=C(Nc1ccc(O)c(-c2nc3ccccc3s2)c1)C1=COCCO1 | – | inactive

SMILES | pIC50 | IC50
CCc1ccc(NC(=O)CSc2nnc(-c3n[nH]c4ccccc34)n2-c2ccccc2)cc1 | 5.58 | –
COc1ccc(C)cc1NC(=O)c1cc2c(=O)n3ccccc3nc2n1C | 5.41 | –
CCOc1ccc(CNC(=O)C2CCN(c3nnc(C)c4c(C)n(-c5ccc(C)cc5)nc34)CC2)cc1 | – | inactive
Cn1c(=O)c2c(nc(SCC(=O)c3cccs3)n2Cc2ccc(F)cc2)n(C)c1=O | – | > 40 µM (inactive)
C=CCn1c(SCC(=O)Nc2sccc2C#N)nc2sc(C)c(C)c2c1=O | – | > 40 µM (inactive)
O=C1c2cccc3c(O)ccc(c23)C(=O)N1c1ccc(Cl)cc1 | 5.62 | –
O=C(Nc1ccccc1)c1cc2c(=O)c3ccccc3oc2nc1C(F)(F)F | 5.16 | –
O=c1[nH]c(Cc2ccc(F)cc2)nc2scc(-c3ccc(F)cc3)c12 | 5.02 | –
O=c1c2ccccc2n2c(-c3ccc(F)cc3)nnc2n1Cc1ccccc1 | – | inactive
COc1ccccc1NC(=O)c1sc2nc(Cc3ccccc3)cc(C(F)(F)F)c2c1N | – | inactive
COc1ccc(/C=C2\SC(=O)N(CCC(=O)Nc3ccccc3)C2=O)cc1OC | – | inactive
COc1ccc2[nH]c(C(=O)Nc3ccccc3Cl)cc2c1 | – | > 40 µM (inactive)
CCOc1ccc(NC(=O)CSc2ncnc3c2sc2ccccc23)cc1 | 5.20 | –
CN1C(=O)c2cccc3c(N)ccc(c23)C1=O | – | inactive
Cc1cc2c(s1)c1cnn(Cc3c(Cl)ccc(C)c3F)c(=O)c1n2C | – | inactive
COc1ccccc1C(=O)Nc1nc2ccccc2s1 | 5.28 | –
COc1ccc2cc(C3CC(c4cccs4)=NN3C(C)=O)c(Cl)nc2c1 (centres undefined) | 5.54 | –
CCN(c1ccccc1C)S(=O)(=O)c1cc2c3c(c1)CCC(=O)N3CCC2 | – | > 40 µM (inactive)
COc1cc2c(cc1OC)CN(C(=O)CSc1nc(N)c(C#N)cc1C#N)CC2 | – | inactive
COc1cc(/C=C(\C#N)c2nc3ccccc3o2)ccc1O | 5.54 | –
COc1ccc2cc(C(=O)COC(=O)COc3ccc4c(C)cc(=O)oc4c3)ccc2c1 | 5.37 | –
CCOC(=O)c1cc2c(=O)c3ccccc3oc2nc1C | – | > 40 µM (inactive)
O=C(COC(=O)c1sc2ccccc2c1Cl)Nc1ncc(Cl)cc1Cl | – | > 40 µM (inactive)
Cc1ccc(CSc2nc3ccncc3n2CC(=O)Nc2cc(C)cc(C)c2)cc1 | – | > 40 µM (inactive)
